According to ChEMBL document CHEMBL1201862, “PubChem BioAssay data set” (2004):
Active and inactive are the calls of the source.

Experiments:
[1] = microbe, parasite or virus in culture; assay type: functional; details: Mycobacterium tuberculosis
[2] = THP-1 cell cytotoxicity, dose response, cytotoxicity control for Vif-APOBEC3G degradation inhibitor project, THP-1 cells (AID 1117359); assay type: functional; details: Human immunodeficiency virus 1, THP-1
[3] = inhibitors of clade B AD8 Env fusion, dose response, cell-based, cherry-pick (AID 652062); assay type: functional;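 note: luciferase signal from cell-cell fusion driven by HIV-1 clade B AD8 Env; potency is for inhibitors of fusion seen as a drop in luminescence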
[4] = off-target signal loss in HeLa-CEM21 co-culture – HeLa F-luc CTL cells, cherry-picked, counter-screen for HIV-1 Env fusion inhibitor project, dose response (AID 652040); assay type: functional, cell-based;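 note: potency for signal decrease marking cytotoxic or nonspecific inhibition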
[5] = ZM109 Env clade C HIV-1 fusion inhibitors, dose response, HeLa effector, CEM target cells, luciferase, cherry-pick (AID 652058); assay type: functional, cell-based
[6] = inhibitors of HIV Env-driven cell fusion, dose response, cherry-pick (AID 652057); assay type: functional, cell-based
[7] = growth suppression of PTEN-null colon cells, dose response, cell-based, HCT116 PTEN knockout (AID 1047); assay type: functional;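 note: HCT116 colon tumor cells with PTEN knocked out; cells exposed to compound for 60 hours before readout; potency for loss of cell viability measured by luminescence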
[8] = growth suppression of beta-catenin-knockout colon cells, dose response, cell-based, HCT116, human colon tumor (AID 1045); assay type: functional;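 note: HCT116 colon tumor cells with beta catenin knocked out; cells exposed to compound for 60 hours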
[9] = P. falciparum Dd2 growth inhibitors, dose response, SYBR Green, cherry-picked samples (AID 1159567); assay type: functional, cell-based
[10] = target: T1, Nuclear receptor subfamily 0 group B member 1 (Homo sapiens, UniProt P51843); assay type: functional, cell-based;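 note: HEK293T cells transfected with SF-1 and DAX-1 plus StAR promoter luciferase reporter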
T1 sequence (P51843 whole entry): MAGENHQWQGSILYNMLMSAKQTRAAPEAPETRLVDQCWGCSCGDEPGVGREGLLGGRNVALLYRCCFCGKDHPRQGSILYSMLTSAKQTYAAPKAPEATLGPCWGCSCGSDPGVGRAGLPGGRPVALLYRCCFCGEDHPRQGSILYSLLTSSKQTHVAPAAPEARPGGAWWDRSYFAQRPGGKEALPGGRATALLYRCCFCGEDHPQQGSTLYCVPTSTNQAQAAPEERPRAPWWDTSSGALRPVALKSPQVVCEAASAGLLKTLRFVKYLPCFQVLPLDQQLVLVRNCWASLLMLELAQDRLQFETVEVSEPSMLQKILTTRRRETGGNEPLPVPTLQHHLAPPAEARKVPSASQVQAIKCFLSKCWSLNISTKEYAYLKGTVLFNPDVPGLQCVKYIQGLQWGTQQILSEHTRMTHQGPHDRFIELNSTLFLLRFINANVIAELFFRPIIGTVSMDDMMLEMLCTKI

[11] = target: Glucose-6-phosphate 1-dehydrogenase (Homo sapiens, UniProt P11413); assay: human G6PD enzyme inhibitors, dose response, selectivity assay for P. falciparum G6PD inhibitor project, biochemical, fluorescence (AID 504792); assay type: functional
Chain of Glucose-6-phosphate 1-dehydrogenase (P11413 whole entry): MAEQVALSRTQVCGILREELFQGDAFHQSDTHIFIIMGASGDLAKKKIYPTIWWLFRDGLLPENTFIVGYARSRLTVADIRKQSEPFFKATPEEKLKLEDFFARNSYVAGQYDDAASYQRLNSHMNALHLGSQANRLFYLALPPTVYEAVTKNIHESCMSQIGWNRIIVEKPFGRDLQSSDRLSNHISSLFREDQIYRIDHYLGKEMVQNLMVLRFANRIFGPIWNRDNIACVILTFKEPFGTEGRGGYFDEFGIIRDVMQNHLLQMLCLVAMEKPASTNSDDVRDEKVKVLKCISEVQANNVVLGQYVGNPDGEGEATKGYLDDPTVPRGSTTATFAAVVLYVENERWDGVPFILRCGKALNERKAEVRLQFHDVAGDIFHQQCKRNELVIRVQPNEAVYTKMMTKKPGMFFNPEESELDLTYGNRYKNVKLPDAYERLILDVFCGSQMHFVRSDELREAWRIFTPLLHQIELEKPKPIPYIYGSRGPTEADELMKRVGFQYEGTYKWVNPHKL

cells = assay type: functional, cell-based
Cytochrome P450 2D6 = Cytochrome P450 2D6 (Homo sapiens, UniProt P10635);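 note: CYP2D6 member of a cytochrome P450 panel assay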
Chain of Cytochrome P450 2D6 (P10635 whole entry): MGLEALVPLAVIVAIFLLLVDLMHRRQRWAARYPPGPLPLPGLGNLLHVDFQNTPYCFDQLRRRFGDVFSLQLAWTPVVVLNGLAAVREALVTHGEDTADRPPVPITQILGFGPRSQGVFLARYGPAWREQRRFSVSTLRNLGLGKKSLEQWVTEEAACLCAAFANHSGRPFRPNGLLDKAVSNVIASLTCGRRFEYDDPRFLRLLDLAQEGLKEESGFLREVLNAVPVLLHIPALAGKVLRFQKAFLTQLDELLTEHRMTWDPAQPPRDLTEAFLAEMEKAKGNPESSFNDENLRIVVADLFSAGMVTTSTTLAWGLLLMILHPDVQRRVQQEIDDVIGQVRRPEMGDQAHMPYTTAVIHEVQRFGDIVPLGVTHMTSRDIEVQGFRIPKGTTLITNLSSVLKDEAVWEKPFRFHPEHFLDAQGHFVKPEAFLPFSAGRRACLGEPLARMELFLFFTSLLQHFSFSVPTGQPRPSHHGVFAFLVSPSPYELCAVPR

Cytochrome P450 3A4 = Cytochrome P450 3A4 (Homo sapiens, UniProt P08684);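 note: CYP3A4 tested as one member of a cytochrome P450 panel screen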
Chain of Cytochrome P450 3A4 (P08684 whole entry): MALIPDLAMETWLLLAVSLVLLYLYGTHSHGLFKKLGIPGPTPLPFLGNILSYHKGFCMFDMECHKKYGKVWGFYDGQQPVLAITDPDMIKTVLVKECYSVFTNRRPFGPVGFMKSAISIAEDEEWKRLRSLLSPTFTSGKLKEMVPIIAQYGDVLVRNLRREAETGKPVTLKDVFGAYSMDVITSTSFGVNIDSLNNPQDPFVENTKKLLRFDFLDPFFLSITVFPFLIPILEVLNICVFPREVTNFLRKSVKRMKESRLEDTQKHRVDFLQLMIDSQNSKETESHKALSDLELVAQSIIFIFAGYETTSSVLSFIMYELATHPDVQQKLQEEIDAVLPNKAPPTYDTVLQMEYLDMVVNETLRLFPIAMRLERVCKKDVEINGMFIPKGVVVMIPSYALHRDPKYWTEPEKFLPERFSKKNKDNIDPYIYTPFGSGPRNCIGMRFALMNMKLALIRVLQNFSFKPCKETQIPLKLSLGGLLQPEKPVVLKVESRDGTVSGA

Estrogen receptor = target: T2, Estrogen receptor (Homo sapiens, UniProt P03372);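 note: potency for inhibiting coactivator peptide recruitment to the receptor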
T2 sequence (P03372 whole entry): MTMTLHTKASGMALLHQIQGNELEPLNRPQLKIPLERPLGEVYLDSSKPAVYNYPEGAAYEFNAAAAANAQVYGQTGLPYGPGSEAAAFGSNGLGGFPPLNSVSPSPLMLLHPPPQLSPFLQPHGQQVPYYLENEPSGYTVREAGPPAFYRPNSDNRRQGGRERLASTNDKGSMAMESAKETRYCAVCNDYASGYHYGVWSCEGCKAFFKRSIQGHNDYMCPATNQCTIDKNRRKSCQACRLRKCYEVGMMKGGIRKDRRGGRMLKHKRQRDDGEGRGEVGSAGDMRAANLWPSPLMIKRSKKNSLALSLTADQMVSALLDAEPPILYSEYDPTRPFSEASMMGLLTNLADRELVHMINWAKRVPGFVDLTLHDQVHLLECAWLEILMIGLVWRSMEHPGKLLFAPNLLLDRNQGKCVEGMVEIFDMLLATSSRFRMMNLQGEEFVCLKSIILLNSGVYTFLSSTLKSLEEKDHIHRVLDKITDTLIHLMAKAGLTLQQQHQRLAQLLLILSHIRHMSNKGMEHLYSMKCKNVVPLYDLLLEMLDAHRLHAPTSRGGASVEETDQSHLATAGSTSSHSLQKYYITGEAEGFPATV

Protein RecA = target: T3, Protein RecA (Mycobacterium tuberculosis, UniProt P9WHJ3); assay: Fluorescence Cell-Free Homogeneous Dose Retest to Identify Inhibitors of RecA-Intein Splicing Activity. [Related pubchem assays (depositor defined):AID2097, AID2223, AID489010, AID492950]; assay type: functional
T3 sequence (P9WHJ3 whole entry): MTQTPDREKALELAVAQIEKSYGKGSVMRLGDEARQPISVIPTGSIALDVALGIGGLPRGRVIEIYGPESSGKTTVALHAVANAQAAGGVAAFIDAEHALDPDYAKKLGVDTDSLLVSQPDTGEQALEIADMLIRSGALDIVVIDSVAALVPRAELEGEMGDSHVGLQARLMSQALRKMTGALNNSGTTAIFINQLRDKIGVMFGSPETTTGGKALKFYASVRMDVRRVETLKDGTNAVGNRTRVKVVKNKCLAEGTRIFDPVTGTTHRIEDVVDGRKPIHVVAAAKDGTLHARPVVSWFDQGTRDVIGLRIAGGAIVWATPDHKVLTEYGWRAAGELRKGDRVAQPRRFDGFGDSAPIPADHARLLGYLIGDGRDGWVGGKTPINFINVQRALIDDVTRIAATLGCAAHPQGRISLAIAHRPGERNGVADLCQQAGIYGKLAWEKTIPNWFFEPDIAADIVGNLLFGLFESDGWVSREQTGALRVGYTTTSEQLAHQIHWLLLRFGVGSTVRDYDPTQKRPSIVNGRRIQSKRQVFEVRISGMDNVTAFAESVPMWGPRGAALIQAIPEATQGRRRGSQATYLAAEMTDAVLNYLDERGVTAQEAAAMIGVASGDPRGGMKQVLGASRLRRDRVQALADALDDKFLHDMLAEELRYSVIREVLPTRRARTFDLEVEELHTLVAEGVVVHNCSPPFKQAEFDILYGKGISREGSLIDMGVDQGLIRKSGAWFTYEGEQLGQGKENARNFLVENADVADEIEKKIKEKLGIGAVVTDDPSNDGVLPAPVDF

[12] = target: T4, Replicative DNA helicase DnaB (Mycobacterium tuberculosis, UniProt P9WMR3); assay: DnaB intein splicing inhibitors, dose response, biochemical, cell-free fluorescence (AID 449749); assay type: functional
T4 sequence (P9WMR3 whole entry): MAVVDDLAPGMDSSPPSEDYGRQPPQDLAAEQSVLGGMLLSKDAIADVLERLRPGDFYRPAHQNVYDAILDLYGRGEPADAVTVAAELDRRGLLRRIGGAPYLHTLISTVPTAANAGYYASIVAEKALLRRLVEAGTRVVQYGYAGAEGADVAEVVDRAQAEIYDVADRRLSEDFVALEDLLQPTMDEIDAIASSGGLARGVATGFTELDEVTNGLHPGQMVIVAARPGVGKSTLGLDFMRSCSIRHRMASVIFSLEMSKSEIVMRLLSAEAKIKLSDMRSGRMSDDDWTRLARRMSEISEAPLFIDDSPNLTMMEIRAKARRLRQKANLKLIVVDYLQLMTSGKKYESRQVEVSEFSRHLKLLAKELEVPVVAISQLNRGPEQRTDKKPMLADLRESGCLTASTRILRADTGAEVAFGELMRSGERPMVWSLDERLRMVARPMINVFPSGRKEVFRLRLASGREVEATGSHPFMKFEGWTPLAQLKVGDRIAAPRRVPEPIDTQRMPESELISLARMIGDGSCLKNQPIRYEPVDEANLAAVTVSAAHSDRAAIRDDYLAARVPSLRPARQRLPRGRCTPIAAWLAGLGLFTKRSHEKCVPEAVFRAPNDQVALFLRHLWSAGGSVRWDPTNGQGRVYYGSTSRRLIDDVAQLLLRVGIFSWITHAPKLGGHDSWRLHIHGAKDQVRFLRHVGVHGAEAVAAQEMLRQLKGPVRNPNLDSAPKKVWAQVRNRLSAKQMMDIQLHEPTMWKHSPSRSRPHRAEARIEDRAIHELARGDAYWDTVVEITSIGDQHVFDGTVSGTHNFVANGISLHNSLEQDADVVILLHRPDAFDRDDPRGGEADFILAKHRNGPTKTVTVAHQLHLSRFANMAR

[13] = target: T5, Carboxy-terminal domain RNA polymerase II polypeptide A small phosphatase 1 (Homo sapiens, UniProt Q9GZU7); assay: inhibitors of CTDSP1, concentration-response testing, biochemical assay, absorbance-based, actives from ultra-high-throughput screening (AID 540297); assay type: functional
T5 sequence (Q9GZU7 whole entry): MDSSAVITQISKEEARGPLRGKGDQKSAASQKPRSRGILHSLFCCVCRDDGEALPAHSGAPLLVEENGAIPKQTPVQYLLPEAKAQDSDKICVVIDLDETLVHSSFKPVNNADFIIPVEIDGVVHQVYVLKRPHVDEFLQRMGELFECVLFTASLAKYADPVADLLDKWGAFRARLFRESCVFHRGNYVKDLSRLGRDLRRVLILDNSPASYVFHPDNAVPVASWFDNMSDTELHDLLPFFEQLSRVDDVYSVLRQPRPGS

[14] = Luminescence Cell-Based Dose Retest to Confirm Inhibitors of Cancer Stem Cells. [Related pubchem assays (depositor defined):AID2717, AID2721]; assay type: functional; details: Homo sapiens

Structure (SMILES): O=C(NCCc1ccc(Cl)cc1)c1ccc(C[S+]([O-])Cc2ccc(Cl)cc2)o1 (stereo not given)
- CC50 [1]: > 40 µM (active)

Structure (SMILES): COc1ccc(NC(=O)/C(C#N)=C\c2ccc(Br)o2)cc1
- CC50 [2]: 3.4 µM (active)

Structure (SMILES): CC(=O)C1=C(C)N(Cc2ccc(Cl)cc2)C(=S)NC1c1cccc(Br)c1 (stereo not given)
- AC50 [3]: 22.6 µM (active)
- AC50 [4]: 15.9 µM (active)
- AC50 [5]: 4.16 µM (active)
- AC50 [6]: 5.96 µM (active)

Structure (SMILES): CN1CCN(c2cc(-c3ccccc3)nc3cc(-c4ccc(F)cc4)nn23)CC1
- EC50 [7]: 10.6 µM (active)
- EC50 [8]: 9.14 µM (active)
- CC50 [1]: 11.7 µM (active)

Structure (SMILES): CC[C@@]12C(=O)N(c3ccccc3)C(=O)N1[C@H](c1cccc(C)c1)[C@@H]1C(=O)N(Cc3ccccc3)C(=O)[C@@H]12
- AC50 [3]: 5.26 µM (active)
- AC50 [4]: 4.02 µM (active)
- AC50 [5]: 3.8 µM (active)
- AC50 [6]: 3.83 µM (active)

Structure (SMILES): COc1ccc(C#Cc2ccc3c(c2)[C@H]2[C@H](CCN2C(=O)C2CCC2)[C@H](CO)N3)cc1
- AC50 [9]: 3.3 µM (active)

Structure (SMILES): CN1C(=O)CSc2ccc(NC(=O)N3CCc4ccccc43)cc21
- IC50 [10]: > 67.5 µM (inactive)
- IC50 [11]: > 80 µM (inactive)
- IC50 (cells): > 67.5 µM (inactive)

Structure (SMILES): CCC(=O)N1CCC2(CC1)CN(Cc1cccc(Cl)c1)[C@H](CO)c1c2c2ccc(OC)cc2n1C
- AC50 [9]: 4.8 µM (active)

Structure (SMILES): Cc1cc(NC(=O)CCC(=O)N(C2CC2)C2(C(=O)NC3CCCC3)CCC(C)CC2)no1 (stereo not given)
- AC50 [3]: 13.4 µM (active)
- AC50 [4]: 6.16 µM (active)
- AC50 [5]: 3.3 µM (active)
- AC50 [6]: 5.4 µM (active)

Structure (SMILES): NCCc1c[nH]c2ccccc12 [TRYPTAMINE]
- AC50 (Cytochrome P450 2D6): 31.6 µM (inconclusive)
- CC50 [2]: > 40 µM (active)
- AC50 (Cytochrome P450 3A4): inconclusive

Structure (SMILES): FC(F)(F)c1cccc(CN2[C@@H]3CNC[C@H]2[C@@H]3c2ccc(-c3cccnc3)cc2)c1
- AC50 [9]: 4.42 µM (active)

Structure (SMILES): COc1cccc(NC(=O)N2CC(=O)N3[C@H](CO)[C@@H](c4ccc(C#CCC5CCCC5)cc4)[C@H]3C2)c1
- AC50 [9]: 8.6 µM (active)

Structure (SMILES): COC(=O)c1cc(NC(=O)Cn2c(=O)cnc3ccccc32)cc(C(=O)OC)c1
- IC50 (Estrogen receptor): > 50 µM (not active)

Structure (SMILES): CC1(C)Cc2c(sc3c4nnnn4c4nnnn4c23)CO1
- IC50 (Estrogen receptor): 4.11 µM (active)

Structure (SMILES): CCOc1ccccc1CNc1ccc(O)cc1
- IC50 [11]: > 80 µM (inactive)
- EC50 (Protein RecA): 14 µM (active)
- AC50 [12]: > 380 µM (inactive)

Structure (SMILES): Oc1nnc(Cc2ncc(C(F)(F)F)cc2Cl)c2ccccc12
- CC50 [2]: > 40 µM (active)

Structure (SMILES): Cc1nnc(SCC(=O)NC(=O)NCc2ccco2)n1Cc1ccccc1
- IC50 [13]: 5.15 µM (active)
- IC50 (Estrogen receptor): < 1.56 µM (active)

Structure (SMILES): Cc1ccc(-c2cc(-c3ccccc3C)[nH]n2)c(O)c1
- AC50 [14]: 7.98 µM (active)
- CC50 [1]: > 40 µM (active)

Structure (SMILES): CC[C@]1(C(=O)OC)[C@H]2C(=O)N(Cc3ccccc3)C(=O)[C@H]2[C@H]2CN=C(SCC3CC3)N21
- AC50 [3]: 5.46 µM (active)
- AC50 [4]: 2.66 µM (active)
- AC50 [5]: 1.45 µM (active)
- AC50 [6]: 1.12 µM (active)

Structure (SMILES): Oc1ccc(C2c3sc(O)nc3SC3C4CCC(C4)C23)cc1 (stereo not given)
- IC50 (Estrogen receptor): > 50 µM (not active)

Structure (SMILES): CCOC(=O)N1CCc2c(sc(NC(=O)c3ccc(Cl)s3)c2C(N)=O)C1
- EC50 [7]: 15.7 µM (active)
- EC50 [8]: 19.4 µM (active)
- CC50 [1]: 17.3 µM (active)
